Results as given in patent US12383534B2, “Methods for treating cancer” (REGENTS OF THE UNIVERSITY OF MINNESOTA, priority 2021, dated 2025).

Assays:
[1] = tested on: Kitra-SRS cells (CIC-DUX4 sarcoma cell line); test: Cell viability (ATP) assay in Kitra-SRS cells; assay type: cell-based, human; conditions: day 2
Method: Basal media were purchased from HyClone, fetal bovine serum (FBS) was from PeakSerum (Ps-FB3, lot 293Q16), and Glutamax (Glu) and Penicillin/Streptomycin (P/S) were from GIBCO. NCC-CDS-X1 (CIC-DUX4 sarcoma cell line, a generous gift from Tadashi Kondo) cell line was cultured in RPMI with 10% FBS, Glu and P/S, Kitra-SRS (CIC-DUX4 sarcoma cell line, a generous gift from Hidetatsu Otani), 3T3, 293T and C2C12 cell lines were cultured in DMEM/10% FBS/Glu/P/S. The immortalized human myoblast LHCN-M2 cell line was cultured in proliferation medium: F10 supplemented with 20% FBS, 2-mercaptoethanol 1× (GIBCO), 10^−9 M dexamethasone (Sigma), 10 ng/mL bFGF (Peprotech), and Glu/P/S. All cells were cultured at 37° C. in a 5% CO2 atmosphere.
(§1) Cell lines were plated in a 96 well dish (1×10^5 cells/well), and the following day were treated with iP300w or its stereoisomers. ATP assays were performed using CellTiter-Glo® Luminescent Cell Viability Assay (Promega) according to the manufacturer's instructions. Luminescence was analyzed on POLARstar Optima Microplate Reader (BMG Labtech, Offenburg, Germany).
To evaluate the consequences of iP300w treatment of CDS cells, its effects on both monolayer cultures as well as 3D spheres was determined in both CDS cell lines. […] Using the cell viability assay, it was determined that 0.003 μM was the lowest effective concentration on day 2 in both lines (FIG. 2B).

[2] = tested on: NCC-CDS-X1 subcutaneous xenograft tumors; test: NCC-CDS-X1 xenograft tumor growth in mice; assay type: in vivo, mouse; conditions: 1.4 mg/kg b.i.d. intraperitoneally from day 9, 12 days
Method: Mice were maintained, and in vivo experiments were conducted at the University of Minnesota Research Animal Resources facility, under a protocol (1903-36866A) approved by IACUC. Immunodeficient NSG-MDX mice (n=8) were transplanted with 1×10^7 NCC-CDS-X1 cells resuspended in 100 uL of a mixture of medium and Matrigel (Corning). Visible tumor masses at the sites of injection were detected on day 9 after transplantation. All the injected mice developed tumors. At this point, the mice were randomized into two groups, control and iP300w treated, and initial measurement of the tumors was performed. iP300w was initially dissolved in DMSO at 10 mM and then diluted in 100 uL PBS. Each mouse received 1.4 mg/kg iP300w intraperitoneally twice daily or vehicle in the control group. Tumor size was recorded every 4 days and the volume was calculated using the formula (length×width^2)/2.
Finally, the effectiveness of iP300w to suppress CDS tumor growth in vivo was assessed. NCC-CDS-X1 cells were used to generate subcutaneous xenograft tumors in immunodeficient NSG mice (n=8). When tumors were palpable (day 9) iP300w injections (1.4 mg/kg b.i.d.) were initiated and the progression of tumor growth was monitored.

[3] = tested on: DUX4; conditions: cited from earlier work
[4] = tested on: CIC-DUX4 target genes like ETV4 and CCNE1 in ES cell lines (AF573, TC71, A673); test: RT-qPCR for CIC-DUX4 target genes in Ewing sarcoma cell lines; assay type: cell-based; conditions: 0.03 μM, 18 hours
Method: RNA was extracted using an RNA extraction kit (Zymo) and cDNA was made using 0.5 μg total RNA with oligo-dT primer and Verso cDNA Synthesis Kit (Thermo Scientific) following the manufacturer's instructions. qPCRs were performed by using Premix Ex Taq (Probe qPCR, Takara) or SYBR-green. Gene expression levels were normalized to that of GAPDH and analyzed with 7500 System Software using the ACT method (Applied Biosystems). RNA-seq library preparation was done with 500 ng total RNA from NCC-CDS-X1 cells treated for 4 or 24 hours with iP300w (0.3 μM) using the Swift Rapid RNA Library Kit (SwiftBioscience). 36 base paired-end sequencing was performed on an Illumina NextSeq instrument at the University of Minnesota Genomics Center.
To determine whether iP300w was particularly active against CDS cells, vis-à-vis other related cancer cell lines, viability of 3 different Ewing sarcoma (ES) cell lines and several different immortalized cell lines treated with iP300w were compared. […] Furthermore, gene expression analyses confirmed the specificity of iP300w to CDS.

[5] = tested on: Panc1, MiaPaca2, CFPac1 pancreatic cancer cells; test: Cell viability (ATP) assay in pancreatic cancer cells; assay type: cell-based; conditions: serial dilutions, 48 hours
Method: as §1
Pancreatic and colorectal cancer cell lines were treated with iP300w to further distinguish its specificity to CDS from general cytotoxicity. p300/CBP have been correlated with the invasive and migratory properties of pancreatic and colorectal cancers (Iyer, N. G. et al., Proceedings of the National Academy of Sciences of the United States of America 101, 7386-7391 (2004); and Paladino, D. et al, Oncotarget 7, 7253-7267 (2016)). […] This further supports the specific efficacy of iP300w against cancers bearing p300-dependent oncogenic fusion transcription factors (such as CIC-DUX4), vis-à-vis cancers that may show some degree of growth inhibition by iP300w due simply to p300-dependent proliferative pathways.

CNC(=O)Cn1cc(-c2ccc3c(c2)[C@H](F)C[C@]32NC(=O)N(CC(=O)N(Cc3ccc(F)cc3)[C@@H](C)C(F)(F)F)C2=O)cn1 (single isomer, unassigned) [iP300w]
lowest effective concentration in cell viability assay [1]: 0.003 µM
treated mice with tumor growth halted [2]: 5/8
treated mice with tumor growth significantly diminished [2]: 3/8
effect on cell death caused by full length DUX4 [3]: cell death was prevented
effect on gene expression changes caused by DUX4 [3]: ability to reverse gene expression changes caused by DUX4
effect on basal expression of CIC-DUX4 target genes and cell cycle-related genes [4]: did not affect the basal expression
effect on cell viability [5]: no significant effect on cell viability
